Results published in patent US8440710B2, “HSL inhibitors useful in the treatment of diabetes” (Hoffmann-La Roche Inc., priority 2009, dated 2013).

Molecular target: T1, human HSL (Homo sapiens, UniProt Q05469)
T1 construct: generate a full length human HSL ORF with a 3′-His6 tag; made in house; host or cells: High 5 insect cells (baculovirus, pFast-BAC)
T1 sequence (Q05469 1-1076): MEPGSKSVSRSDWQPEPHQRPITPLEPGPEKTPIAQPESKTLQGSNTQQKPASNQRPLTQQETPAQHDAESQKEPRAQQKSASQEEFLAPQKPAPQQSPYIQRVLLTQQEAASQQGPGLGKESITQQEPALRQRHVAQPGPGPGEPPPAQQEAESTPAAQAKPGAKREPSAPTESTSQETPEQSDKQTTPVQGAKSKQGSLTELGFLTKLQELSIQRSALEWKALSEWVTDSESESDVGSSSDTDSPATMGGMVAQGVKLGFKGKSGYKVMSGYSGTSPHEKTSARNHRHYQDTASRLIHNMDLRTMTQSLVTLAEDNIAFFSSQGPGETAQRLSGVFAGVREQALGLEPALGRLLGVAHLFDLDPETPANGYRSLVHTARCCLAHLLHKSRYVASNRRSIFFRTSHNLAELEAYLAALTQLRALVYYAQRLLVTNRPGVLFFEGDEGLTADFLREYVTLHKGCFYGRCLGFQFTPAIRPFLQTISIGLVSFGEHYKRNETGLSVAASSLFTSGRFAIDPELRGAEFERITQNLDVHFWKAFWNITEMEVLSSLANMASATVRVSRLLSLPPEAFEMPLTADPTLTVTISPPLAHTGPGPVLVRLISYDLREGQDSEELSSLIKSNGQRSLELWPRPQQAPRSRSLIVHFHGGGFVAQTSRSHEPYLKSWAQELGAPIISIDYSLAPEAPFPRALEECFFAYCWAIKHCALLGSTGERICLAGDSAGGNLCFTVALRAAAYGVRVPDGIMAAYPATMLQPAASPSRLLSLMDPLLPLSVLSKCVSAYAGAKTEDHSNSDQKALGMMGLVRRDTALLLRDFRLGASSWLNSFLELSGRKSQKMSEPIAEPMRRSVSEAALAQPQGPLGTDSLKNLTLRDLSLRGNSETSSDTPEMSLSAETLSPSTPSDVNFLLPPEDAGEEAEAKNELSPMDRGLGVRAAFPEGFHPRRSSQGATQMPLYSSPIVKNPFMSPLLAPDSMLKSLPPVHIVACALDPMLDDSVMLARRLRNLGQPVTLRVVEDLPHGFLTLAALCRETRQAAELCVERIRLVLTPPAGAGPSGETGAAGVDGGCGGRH
Experiment: Human Hormone-Sensitive Lipase (HSL) enzyme inhibition assay (colorimetric, DMPT substrate)
Type: biochemical
Conditions: human full length HSL-His6, 2,3-dimercapto-1-propanol tributyrate substrate, 37° C. 20 minutes, absorbance at 405 nm; read-out: HSL hum IC50
How it was run: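 Full-length human HSL with C-terminal His6, expressed in baculovirus-infected High 5 cells and Ni-NTA purified, was added (15 ug/ml stock) to 1.5 mM DMPT in 100 mM MOPS pH 7.2, 0.2 mg/ml fatty acid-free BSA containing compound. After 20 min at 37 °C, DTNB with SDS/Triton X-100 was added; A405 read after 15 min at RT.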

CC(C)SC[C@]1(O)CC[C@]2(CCN(c3ccc(O[C@@H](C)C(F)(F)F)nc3)C2=O)CC1 [Example 320, (5α,8α)-8-Hydroxy-8-isopropylsulfanylmethyl-2-[6-((S)-2,2,2-trifluoro-1-methyl-ethoxy)-pyridin-3-yl]-2-aza-spiro[4.5]decan-1-one]
IC50: 0.01 µM

CC(C)SC[C@]1(O)CC[C@]2(CCN(c3ccc(O[C@H](C)C(F)(F)F)nc3)C2=O)CC1 [Example 321, (5α,8α)-8-Hydroxy-8-isopropylsulfanylmethyl-2-[6-((R)-2,2,2-trifluoro-1-methyl-ethoxy)-pyridin-3-yl]-2-aza-spiro[4.5]decan-1-one]
IC50: 0.01 µM

CC(C)(C)S(=O)(=O)C[C@]1(O)CC[C@]2(CCN(c3ccc(OCC(F)(F)F)cc3)C2=O)CC1 [Example 322, (5α,8α)-8-Hydroxy-8-(2-methyl-propane-2-sulfonylmethyl)-2-[4-(2,2,2-trifluoro-ethoxy)-phenyl]-2-aza-spiro[4.5]decan-1-one]
IC50: 0.02 µM

CC(C)S(=O)(=O)C[C@]1(O)CC[C@]2(CCN(c3ccc(O[C@@H](C)C(F)(F)F)nc3)C2=O)CC1 [Example 323, (5α,8α)-8-Hydroxy-8-(propane-2-sulfonylmethyl)-2-[6-((S)-2,2,2-trifluoro-1-methyl-ethoxy)-pyridin-3-yl]-2-aza-spiro[4.5]decan-1-one]
IC50: 0.01 µM

CC(C)S(=O)(=O)C[C@]1(O)CC[C@]2(CCN(c3ccc(O[C@H](C)C(F)(F)F)nc3)C2=O)CC1 [Example 324, (5α,8α)-8-Hydroxy-8-(propane-2-sulfonylmethyl)-2-[6-((R)-2,2,2-trifluoro-1-methyl-ethoxy)-pyridin-3-yl]-2-aza-spiro[4.5]decan-1-one]
IC50: 0.02 µM

C[C@H](Oc1ccc(N2CC[C@]3(CC[C@@](O)(CS(=O)(=O)C(C)(C)C)CC3)C2=O)cn1)C(F)(F)F [Example 325, (5α,8α)-8-Hydroxy-8-(2-methyl-propane-2-sulfonylmethyl)-2-[6-((S)-2,2,2-trifluoro-1-methyl-ethoxy)pyridin-3-yl]-2-aza-spiro[4.5]decan-1-one]
IC50: 0.01 µM

C[C@@H](Oc1ccc(N2CC[C@]3(CC[C@@](O)(CS(=O)(=O)C(C)(C)C)CC3)C2=O)cn1)C(F)(F)F [Example 326, (5α,8α)-8-Hydroxy-8-(2-methyl-propane-2-sulfonylmethyl)-2-[6-((R)-2,2,2-trifluoro-1-methyl-ethoxy)-pyridin-3-yl]-2-aza-spiro[4.5]decan-1-one]
IC50: 0.01 µM

C[C@@H](Oc1ccc(N2CC[C@]3(CC[C@@](O)(COCC(F)(F)F)CC3)C2=O)cn1)C(F)(F)F [Example 327, (5α,8α)-8-Hydroxy-8-(2,2,2-trifluoro-ethoxymethyl)-2-[6-((R)-2,2,2-trifluoro-1-methyl-ethoxy)-pyridin-3-yl]-2-aza-spiro[4.5]decan-1-one]
IC50: 0.03 µM

CCC(CC)OC[C@]1(O)CC[C@]2(CCN(c3ccc(O[C@@H](C)C(F)(F)F)nc3)C2=O)CC1 [Example 328, (5α,8α)-8-(1-Ethyl-propoxymethyl)-8-hydroxy-2-[6-((S)-2,2,2-trifluoro-1-methyl-ethoxy)-pyridin-3-yl]-2-aza-spiro[4.5]decan-1-one]
IC50: 0.01 µM

COC[C@]1(O)CC[C@]2(CCN(c3ccc(OC(C)C)nc3)C2=O)CC1 [Example 329, (5α,8α)-8-Hydroxy-2-(6-isopropoxy-pyridin-3-yl)-8-methoxymethyl-2-aza-spiro[4.5]decan-1-one]
IC50: 0.17 µM

CCOC[C@]1(O)CC[C@]2(CCN(c3ccc(OC(C)C)nc3)C2=O)CC1 [Example 330, (5α,8α)-8-Ethoxymethyl-8-hydroxy-2-(6-isopropoxy-pyridin-3-yl)-2-aza-spiro[4.5]decan-1-one]
IC50: 0.04 µM

CCCS(=O)(=O)C[C@]1(O)CC[C@]2(CCN(c3ccc(C(C)(C)C)cc3)C2=O)CC1 [Example 331, (5α,8α)-2-(4-tert-Butyl-phenyl)-8-hydroxy-8-(propane-1-sulfonylmethyl)-2-aza-spiro[4.5]decan-1-one]
IC50: 0.012 µM

CC(C)CS(=O)(=O)C[C@]1(O)CC[C@]2(CCN(c3ccc(C(C)(C)C)cc3)C2=O)CC1 [Example 332, (5α,8α)-2-(4-tert-Butyl-phenyl)-8-hydroxy-8-(2-methyl-propane-1-sulfonylmethyl)-2-aza-spiro[4.5]decan-1-one]
IC50: 0.007 µM

CC(C)S(=O)(=O)C[C@]1(O)CC[C@]2(CCN(c3ccc(C(C)(C)C)cc3)C2=O)CC1 [Example 333, (5α,8α)-2-(4-tert-Butyl-phenyl)-8-hydroxy-8-(propane-2-sulfonylmethyl)-2-aza-spiro[4.5]decan-1-one]
IC50: 0.008 µM

CC(C)(C)c1ccc(N2CC[C@]3(CC[C@@](O)(CS(=O)(=O)C(C)(C)C)CC3)C2=O)cc1 [Example 334, (5α,8α)-2-(4-tert-Butyl-phenyl)-8-hydroxy-8-(2-methyl-propane-2-sulfonylmethyl)-2-aza-spiro[4.5]decan-1-one]
IC50: 0.008 µM

CCCS(=O)(=O)C[C@]1(O)CC[C@]2(CCN(c3ccc(OC(C)C)nc3)C2=O)CC1 [Example 335, (5α,8α)-8-Hydroxy-2-(6-isopropoxy-pyridin-3-yl)-8-(propane-1-sulfonylmethyl)-2-aza-spiro[4.5]decan-1-one]
IC50: 0.05 µM

O=C1N(c2ccc3c(c2)OC(F)(F)O3)CC[C@]12CC[C@@](O)(C(F)(F)F)CC2 [Example 336, (5α,8α)-2-(2,2-Difluoro-benzo[1,3]dioxol-5-yl)-8-hydroxy-8-trifluoromethyl-2-aza-spiro[4.5]decan-1-one]
IC50: 0.21 µM

CC[C@]1(O)CC[C@]2(CCN(c3ccc4c(c3)OC(F)(F)O4)C2=O)CC1 [Example 337, (5α,8α)-2-(2,2-Difluoro-benzo[1,3]dioxol-5-yl)-8-ethyl-8-hydroxy-2-aza-spiro[4.5]decan-1-one]
IC50: 0.08 µM

CC(=O)[C@]1(O)CC[C@]2(CCN(c3ccc(OCC(F)(F)F)cc3)C2=O)CC1 [Example 338, (5α,8α)-8-Acetyl-8-hydroxy-2-[4-(2,2,2-trifluoro-ethoxy)-phenyl]-2-aza-spiro[4.5]decan-1-one]
IC50: 0.25 µM

CC(C)(O)[C@]1(O)CC[C@]2(CCN(c3ccc(OCC(F)(F)F)cc3)C2=O)CC1 [Example 339, (5α,8α)-8-Hydroxy-8-(1-hydroxy-1-methyl-ethyl)-2-[4-(2,2,2-trifluoro-ethoxy)-phenyl]-2-aza-spiro[4.5]decan-1-one]
IC50: 0.12 µM

O=C1N(c2ccc(C3CC(F)(F)C3)cc2)CC[C@]12CC[C@@](O)(C(F)(F)F)CC2 [Example 340, (5α,8α)-2-[4-(3,3-Difluoro-cyclobutyl)-phenyl]-8-hydroxy-8-trifluoromethyl-2-aza-spiro[4.5]decan-1-one]
IC50: 0.04 µM

O=C1N(c2ccc(C3CC(F)(F)C3)cc2)CC[C@]12CC[C@](O)(C(F)(F)F)CC2 [Example 341, (5α,8β)-2-[4-(3,3-Difluoro-cyclobutyl)-phenyl]-8-hydroxy-8-trifluoromethyl-2-aza-spiro[4.5]decan-1-one]
IC50: 1.35 µM

COC[C@]1(O)CC[C@]2(CCN(c3ccc(C4CC(F)(F)C4)cc3)C2=O)CC1 [Example 342, (5α,8α)-2-[4-(3,3-Difluoro-cyclobutyl)-phenyl]-8-hydroxy-8-methoxymethyl-2-aza-spiro[4.5]decan-1-one]
IC50: 0.03 µM

CCC[C@]1(O)CC[C@]2(CCN(c3ccc(C(C)(C)C)cc3)C2=O)CC1 [Example 343, (5α,8α)-2-(4-tert-Butyl-phenyl)-8-hydroxy-8-propyl-2-aza-spiro[4.5]decan-1-one]
IC50: 0.02 µM

CC(C)[C@]1(O)CC[C@]2(CCN(c3ccc(C(C)(C)C)cc3)C2=O)CC1 [Example 344, (5α,8α)-2-(4-tert-Butyl-phenyl)-8-hydroxy-8-isopropyl-2-aza-spiro[4.5]decan-1-one]
IC50: 0.01 µM

CC(C)(C)c1ccc(N2CC[C@]3(CC[C@@](O)(C(F)(F)F)CC3)C2=O)cc1 [Example 345, (5α,8α)-2-(4-tert-Butyl-phenyl)-8-hydroxy-8-trifluoromethyl-2-aza-spiro[4.5]decan-1-one]
IC50: 0.02 µM

COC[C@]1(O)CC[C@]2(CCN(c3ccc(C(C)(C)C)cc3)C2=O)CC1 [Example 346, (5α,8α)-2-(4-tert-Butyl-phenyl)-8-hydroxy-8-methoxymethyl-2-aza-spiro[4.5]decan-1-one]
IC50: 0.02 µM
